The test system of one data set is HOP-62. In words: Monolayer assay Protocol 2 (SRB), high MDR-expressing cell lines. It counts as cell-based. The note with it: Homo sapiens; NSCLC HOP-62, high MDR-expressing, 48 h. As for the experimental part: (§1) The human tumor cell lines of the National Cancer Institute (NCI) cancer screening panel were grown in RPMI 1640 medium containing 5% fetal bovine serum and 2 mM L-glutamine (Boyd and Paull, 1995). Cells were inoculated into 96 well microtiter plates in 0.1 mL at plating densities ranging from 5,000 to 40,000 cells/well depending on the doubling time of individual cell lines. After cell inoculation, the microtiter plates were incubated at 37° C., 5% CO2, 95% air and 100% relative humidity for 24 h prior to addition of experimental drugs.
(§2) After 24 h, two plates of each cell line were fixed in situ with trichloroacetic acid (TCA), to represent a measurement of the cell population for each cell line at the time of drug addition (Tz). Experimental drugs were solubilized in dimethyl sulfoxide at 400-fold the desired final maximum test concentration and stored frozen prior to use. At the time of drug addition, an aliquot of frozen concentrate was thawed and diluted to twice the desired final maximum test concentration with complete medium containing 0.05 mg/mL gentamicin. Additional four, 10-fold or ½ log serial dilutions were made to provide a total of five drug concentrations plus control. […]
(§3) Following drug addition, the plates were incubated for an additional 48 h at 37° C., 5% CO2, 95% air, and 100% relative humidity. […] Bound stain was subsequently solubilized with 10 mM trizma base, and the absorbance was read on an automated plate reader at a wavelength of 515 nm. […] Using the seven absorbance measurements [time zero, (Tz), control growth, (C), and test growth in the presence of drug at the five concentration levels (Ti)], the percentage growth was calculated at each of the drug concentrations levels. Percentage growth inhibition was calculated as:
(§4) Three dose response parameters were calculated for each experimental agent. […] The drug concentration resulting in total growth inhibition (TGI) was calculated from Ti=Tz. […]

Another data set deals with SW-620. The description is as above. In kind it is cell-based. The note with it: Homo sapiens; Colon SW-620, high MDR-expressing, 48 h. As for the experimental part:
as §1, §2, §3, §4

Another data set has as its system UO-31. The description is as above. In kind it is cell-based. The following applies: Homo sapiens; Renal UO-31, high MDR-expressing, 48 h. As for the experimental part: as §1, §2, §3, §4
A short description of data set [1]: Pharmacokinetic analysis Protocol 2 (blood and brain). It counts as in vivo, female Balb C mice. The following applies: female, Balb C, mouse; for Kp: brain / whole blood; for AUC: whole blood, blood, 0-24 h. As for the experimental part: To prepare the dosing solution, 5 mg test compound was dissolved in 100 μL ethanol resulting in a compound solution of 50 mg/mL. The solution was then diluted to 2 mg/mL by adding approximately 2.4 mL 0.15 M NaCl (0.9% w/v saline), 5% v/v Tween 20 and 5% v/v PEG 400 (final ethanol conc. 4% v/v).
A single dose of 10 mg/kg p.o. or 2 mg/kg i.v. of test compound at a concentration of 10 mg/kg p.o or 2 mg/kg i.v. was administered to groups of 3 female Balb C mice. At 5 min, 15 min, 60 min, 4 h, 8 h and 24 h, groups were sacrificed and whole blood samples of approximately 0.2 mL were retrieved in EDTA to give a final concentration of 0.5 mM, additionally the brains were removed.

Data on 1 molecule can be found in patent publication US20100061994A1, “MEDICAL USES OF 39-DESMETHOXYRAPAMYCIN AND ANALOGUES THEREOF” (priority 2005, published 2010).

Each structure is given as a SMILES string. Like-named read-outs stand apart in the source and are kept apart here.

As for `CO[C@H]1C[C@@H]2CC[C@@H](C)[C@@](O)(O2)C(=O)C(=O)N2CCCC[C@H]2C(=O)O[C@H]([C@H](C)C[C@@H]2CC[C@@H](O)[C@H](OC)C2)CC(=O)[C@H](C)/C=C(\C)[C@@H](O)[C@@H](OC)C(=O)[C@H](C)C[C@H](C)/C=C/C=C/C=C/1C` [Rapamycin], the GI50 (in general, the concentration that inhibits growth by half) with HOP-62 is 234 nM; in the data set on SW-620, 25100 nM; in the data set with UO-31, 100 nM. Moreover, the Kp in data set [1] (intravenous, PK protocol 2, 2 mg/kg i.v., read-out: Ri i.v. (partition coefficient)) was determined as 0.255; in data set [1] (oral, PK protocol 2, 10 mg/kg p.o., read-out: Ri p.o. (partition coefficient)), 0.066. The AUC in data set [1] (iv, PK protocol 2, 2 mg/kg i.v., read-out: AUCBLOOD i.v.) came out at 24900 ng·h/mL; in data set [1] (po, PK protocol 2, 10 mg/kg p.o., read-out: AUCBLOOD p.o.), 25200 ng·h/mL.
